Data on one compound can be found in patent US20220323437A1, “METHODS FOR TREATING PULMONARY ARTERIAL HYPERTENSION” (ACTELION PHARMACEUTICALS LTD, priority 2019, published 2022).

Read-outs that look alike come from different tables or passages of the source.

This data set in a line: Pharmacokinetics of selexipag and ACT-333679 after oral and i.v. selexipag in subjects with stable PAH (Phase 3 switch study). To be noted: for AUC / Cmax: human, plasma, steady state; for AUC: read-out: AUCτ, ss Geom. Mean; for Cmax: read-out: Cmax, ss Geom. Mean. Type of data set: in vivo, human. The protocol:
This was a prospective, multicenter, open-label, single-sequence, cross-over, Phase 3 study. Based on the dose of selexipag received at study entry, subjects were allocated to one of the following groups, selexipag 200-1000 μg b.i.d. or selexipag 1200-1600 μg b.i.d. See, FIG. 1. The study comprised the following periods:
(ii) Treatment and observation period: The treatment and observation period included the following consecutive periods: • Period 1 included oral selexipag pre-treatment period for 1 day, in-hospital. This period started with intake of the morning dose of oral selexipag on Day 1 at Visit 2 and ended the following day, before initiation of the first infusion of i.v. selexipag. • Period 2 included i.v. selexipag treatment period for 36 hours [3 infusions], in-hospital. This period started in the morning of Day 2 at Visit 2 with the start of the first infusion of i.v. selexipag and ended in the evening of Day 3 at Visit 2 before the evening administration of oral selexipag. Administration of oral selexipag was interrupted during the i.v. selexipag treatment period. • Period 3 included oral selexipag post-treatment period for 7 to 11 day. This period started in the evening of Day 3 at Visit 2 with the administration of oral selexipag and ended 7-11 days later, at Visit 3.
Selexipag was provided as a dry powder to be reconstituted as an injectable solution for i.v. administration. Before administration, selexipag dry powder was to be reconstituted and diluted with sterile 0.9% NaCl solution. Each subject received an i.v. selexipag dose that corresponded to the subject's individual stable dose of oral selexipag. […] See, Table 4.
The intravenous infusion took place over a 87-minute period (2 infusions on Day 2 and 1 infusion on Day 3)
The following PK endpoints were analyzed for selexipag and its active metabolite, ACT-333679, after oral selexipag in Period 1 and after i.v. selexipag administration in Period 2. See, FIG. 2. • The area under the plasma-concentration time curve (AUC) during a dose interval at steady state (AUCτ, ss). • The maximum plasma concentration at steady state (Cmax, ss). • The time to reach maximum plasma concentration at steady state (tmax, ss). • Trough plasma concentration at steady state (Ctrough, ss).

On to `CC(C)N(CCCCOCC(=O)O)c1cnc(-c2ccccc2)c(-c2ccccc2)n1` [ACT-333679], for which the “tmax, ss between the i.v. and oral selexipag periods” value (Period 2 vs Period 1) is given as “comparable”. Further, for the setting “after i.v. selexipag, 450-1800 μg b.i.d. dose range”, the “slope of dose proportional increase in exposure” value came to 0.697. In addition, the “exposure after i.v. and oral selexipag administration” value (conclusion of the study) was “comparable”. Also, under “iv, Period 2 (i.v. selexipag)”, the AUC was 15.9 ng·h/mL and the Cmax was 2.6 ng/mL. For the setting “Period 1 (oral selexipag)”, the AUC was 19.3 ng·h/mL and the Cmax turned out to be 3.3 ng/mL. Also, under “i.v. to oral dose ratio 1.125”, the “dose-normalized geometric mean ratio (i.v./oral selexipag) for AUCτ, ss (90% CI)” value is 0.80 (0.71, 0.90) and the “dose-normalized geometric mean ratio (i.v./oral selexipag) for Cmax, ss (90% CI)” value is 0.79 (0.65, 0.96).
